Assay results reported in the SangsterLogP compilation.

Compound	logP
O=C(NC(O)Cc1ccc([N+](=O)[O-])cc1)C(F)(F)F (stereo not given)	1.46
CCc1ccccc1N	1.74
CCCN(CCC)CCC	2.79
CCCCCN	1.49
NS(=O)(=O)c1ccc(Br)cc1	1.36
Nc1ncnc2c1ncn2[C@@H]1O[C@H](CO)C[C@H]1O	-0.61
CCc1ccccc1C	3.53
O=[N+]([O-])c1cccc2c1ccc[n+]2[O-]	0.49
CC(=O)C(C#N)=NNc1ccc([N+](=O)[O-])cc1[N+](=O)[O-]	3.4
c1cncc([C@@H]2CCCCN2)c1	0.97
CC(C)CN	0.73
CCCCCC(=O)O	1.92
Oc1cc(O)cc(O)c1	0.16
CC(C)N(N=O)C(C)C	1.38
BrCBr	1.7
CCCC	2.89
CC(=O)c1ccc(C)cc1	2.1
CN(C)N=O	-0.57
Clc1ccccc1Cl	3.43
CN(C)c1ccc(S(N)(=O)=O)cc1	0.76
Nc1nc2[nH]nnc2c(=O)[nH]1	-0.71
CC1(C)SC2C(NC(=O)C(O)c3ccccc3)C(=O)N2C1C(=O)O (stereo not given)	1.4
NC1=C(Cl)C(=O)c2ccccc2C1=O	2.12

Compound	logP
CN(C)CCCN1c2ccccc2Sc2ccccc21	4.55
CC/C(=C(/CC)c1ccc(O)cc1)c1ccc(O)cc1	5.07
NCCc1c[nH]c2ccccc12	1.55
C#C	0.37
CN1C(=O)C(=O)c2ccccc21	0.58
O=C(O)c1ccccc1Cl	2.05
COC(=O)C(C#N)=NNc1cc(C(F)(F)F)ccc1Cl	4.42
CCC1(c2ccccc2)C(=O)NC(=O)NC1=O	1.47
Clc1cccc(-c2ccccc2)c1	4.58
NS(=O)(=O)c1ccccc1	0.31
Cc1ccc(Cc2cnc(NCCSCc3ccc(C(C)(C)N)o3)[nH]c2=O)cn1	2.06
CCCC[N+](=O)[O-]	1.47
Nc1ccc(Cl)cc1	1.83
CC(=O)c1ccc(O)cc1	1.35
NC(=O)Cc1cccnc1	-0.71
Cc1ccccc1OCC(=O)O	1.98
c1cc2c3c(cccc3c1)CC2	3.92
Nc1ccc2ccccc2c1	2.28
O=C1CCCC(=O)N1	1.9
Fc1c(F)c(F)c(F)c(F)c1F	2.55
O=C(O)c1ccc(O)cc1	1.58
O=C1CCCCCN1	-0.19
CNCc1ccccc1	1.52

Compound	logP
Cc1ccccc1S(N)(=O)=O	0.84
CC(=O)c1ccc(S(=O)(=O)NC(=O)NC2CCCCC2)cc1	2.44
CCN(CC)CC	1.45
O=C(c1ccccc1)c1ccncc1	1.98
COC(=O)[C@H]1[C@@H](OC(=O)c2ccccc2)C[C@@H]2CC[C@H]1N2C	2.3
CNC(=O)Oc1cc(C)cc(C)c1	2.23
N#Cc1cccs1	1.27
O=C(c1ccccc1)c1ccc(O)cc1	3.07
Clc1ccc(-c2ccccc2)cc1	4.61
CNCC(O)c1ccc(O)c(O)c1 (stereo not given)	-1.37
CS(=O)(=O)c1ccccc1	0.5
c1cnc2c(c1)ccc1ncccc12	2.51
N#Cc1cccc(OCC(=O)O)c1	0.95
CC(=O)C(C#N)=NNc1cc(Cl)cc(Cl)c1	4.68
O=C(O)CCc1ccccc1	1.84
CSc1nnc(CCC(C)C)c(=O)n1N	1.85
CC(=O)c1ccc([N+](=O)[O-])cc1	1.53
COc1cccc([N+](=O)[O-])c1	2.16
CN/C(=C\[N+](=O)[O-])NCCSCc1ccc(CN(C)C)o1	0.27
Cn1c([N+](=O)[O-])cnc1COC(N)=O	-0.38
O=C(Oc1ccccc1)c1ccccc1	3.59
NC(=O)Cc1ccncc1	-0.65
CCCCCCCN	2.57

Compound	logP
CCCCCCCCCCCC(=O)O	4.6
C=C	1.13
NC12CC3CC(CC(C3)C1)C2	2.44
CCC(=O)c1ccccc1	2.19
CN	-0.57
NC(=O)CCCc1cccnc1	-0.08
OCC1OC(n2cnc3c(S)ncnc32)C(O)C1O (stereo not given)	-0.6
NC(=O)c1ccc([N+](=O)[O-])cc1	0.82
NCCc1ccc(O)c(O)c1	-0.98
NNC(=O)c1ccccc1	0.19
C(=C\c1ccccc1)/c1ccccc1	4.81
CC1(C)SC2C(NC(=O)C(N)c3ccc(O)cc3)C(=O)N2C1C(=O)O (stereo not given)	0.87
C[C@]12C[C@H](O)[C@H]3[C@@H](CCC4=CC(=O)CC[C@@]43C)[C@@H]1CC[C@@H]2C(=O)CO	1.94
O=[N+]([O-])c1cc(Cl)c(O)c(Cl)c1	2.94
CCS(=O)(=O)CCn1c([N+](=O)[O-])cnc1C	-0.35
Nc1cccc(Cl)c1Cl	2.82
NC(=O)N(CCCl)N=O	0.57
Nc1ccc(S(=O)(=O)c2ccc(N)cc2)cc1	0.97
CC(C)(C)NCC(O)COc1nsnc1N1CCOCC1 (stereo not given)	1.83
O=[N+]([O-])c1cc[n+]([O-])c2ccccc12	1.09
CC=CC	2.33
